Here are results for 11 molecules from patent US12486228B2, “N-substituted indoles and use as allosteric modulators of cannabinoid receptors” (priority 2018, dated 2025).

Experiment [1] concerns normotensive C57Bl/6J mice. The settings on record: 0.2% GAT1102 combined with subthreshold 0.25% WIN55,212-2, topical, at 6 and 12 hrs, n=5, P<0.05. How it is done:
(§1) Normotensive C57Bl/6J mice and Sh3pxd2b mice were obtained from Jackson Laboratory (Bar Harbor, Maine). The Sh3pxd2b mice were bred in house, and their progenies with abnormal phenotypical morphology, identified as a nee mice, were used for experiments.
(§2) Drug was administered topically (5 μl/eye) to the right eyes, while the left eyes received vehicle control (2% DMSO+4% Tween-20 in Tocrisolve; 5 μl).
(§3) Mice were anesthetized with the isoflurane (3% induction, 1.5% maintenance). The intraocular pressure (TOP) was measured with a handheld rebound tonometer (Tonolab, Icare, Finland), calibrated to mouse. Ten recordings were taken for each eye and then averaged. The IOP readings were taken at time 0 (baseline), 1, 6 and 12 hrs after the drug/vehicle administration. All the measurements were taken at the same time of the day, in order to minimize variability related to diurnal changes in IOP.
(§4) Data was analyzed by GraphPad version 6.0 (GraphPad Software, Inc., La Jolla, CA). Paired t-tests were used to compare between eyes of the same animal. A P value of <0.05 was considered significant. […] Values are represented as a change in IOP from the baseline (time 0).

Experiment [2] relates to ocular hypertensive nee mice. As to conditions: GAT1102 0.2% alone, topical, at 1 and 12 hrs, n=6, P<0.05. As to the method: as §1, §2, §3, §4
The subject of experiment [3] is excitatory postsynaptic currents (EPSCs).
Experiment [4] deals with T1, CB2 (Homo sapiens, UniProt P34972). As to the kind of experiment: cell-based. The settings on record: for EC50 / Emax: CB2, agonist mode; for EC50: read-out: CB2 Agonist mode cAMP EC50; for Emax: read-out: CB2 Agonist mode cAMP Emax.
T1 sequence (P34972 whole entry, species assumed): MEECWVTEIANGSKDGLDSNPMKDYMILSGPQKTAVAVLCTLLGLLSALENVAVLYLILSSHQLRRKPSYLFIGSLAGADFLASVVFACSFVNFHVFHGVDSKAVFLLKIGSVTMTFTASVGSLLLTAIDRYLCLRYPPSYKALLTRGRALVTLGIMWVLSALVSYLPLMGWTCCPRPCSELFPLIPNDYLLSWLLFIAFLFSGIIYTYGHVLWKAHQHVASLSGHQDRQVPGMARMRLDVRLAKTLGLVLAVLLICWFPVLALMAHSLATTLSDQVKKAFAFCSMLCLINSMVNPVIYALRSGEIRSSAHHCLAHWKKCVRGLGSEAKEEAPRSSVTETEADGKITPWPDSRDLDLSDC
Experiment [5] deals with T1, CB2. The experiment in a line: cell-based. As to conditions: for EC50 / Emax: CB2, agonist mode; for EC50: read-out: CB2 Agonist mode β-Arrestin EC50; for Emax: read-out: CB2 Agonist mode β-Arrestin Emax.
Experiment [6] addresses T2, hCB1 (Homo sapiens, UniProt P21554). As to the kind of experiment: cell-based. Set-up: host or cells: CHO-K1. As to the method:
HitHunter cAMP assay: Inhibition of forskolin-stimulated cAMP was determined using the DiscoveRx HitHunter assay in hCB1R CHO-K1 cells. Cells (20,000 cells/well in low-volume 96 well plates) were incubated overnight in Opti-MEM (Invitrogen) containing 1% FBS at 37° C. and 5% CO2. Following this, Opti-MEM media was removed and replaced with cell assay buffer (DiscoveRx) and cells were co-treated at 37° C. with 10 μM forskolin and hCB1R ligands (0.10 nM-10 μM) for 30 min or 90 min cAMP antibody solution and cAMP working detection solutions were then added to cells according to the manufacturer's directions (DiscoveRx®) and cells were incubated for 60 min at room temperature. cAMP solution A was added according to the manufacturer's directions (DiscoveRx®) and cells were incubated for an additional 60 min at room temperature before chemiluminescence was measured on a Cytation 5 plate reader (top read, gain 200, integration time 10,000 ms).

Experiment [7] addresses T2, hCB1. As to the kind of experiment: cell-based. On the set-up: host or cells: CHO-K1 PathHunter. As to the method:
PathHunter CB1 β-Arrestin Assay: Chinese hamster ovary K1 (CHO-K1)-PathHunter hCB1 β-arrestin cells (DiscoveRx, Fremont, CA) were seeded at 5000 cells/well in 384-well plates 24 h before use and incubated at 37° C., 5% CO2. Compounds were dissolved in dimethyl sulfoxide (DMSO) and diluted in optimized cell culture (OCC) media. Agonist EC80 was determined directly from an agonist dose—response curve (data not shown). […] Five microliters of allosteric modulator or vehicle solution was added to each well at the appropriate concentrations and incubated for 30 min. Five microliters of agonist was then added to each well followed by a 90 min incubation. Fifteen microliters of detection reagent was then added followed by further 60 min incubation at room temperature. Chemiluminescence was measured on a standard luminescence plate reader as relative light units (RLU). Basal RLU was defined as zero. […] Data were analyzed using the fourparameter variable-slope and allosteric EC50 shift nonlinear regression equations in Prism 5.0 (GraphPad, San Diego, CA).

Where [8] appears, read: CB1, PAM mode, read-out: CB1 PAM mode cAMP EC50.
The mark [9] stands for this setting: CB1, agonist mode, read-out: CB1 Agonist mode cAMP EC50.
[10] abbreviates: read-out: CB1 Agonist mode cAMP Emax, CB1, agonist mode.
Setting [11] is: read-out: CB1 PAM mode cAMP Emax, CB1, PAM mode.
Where [12] appears, read: CB1, PAM mode, read-out: CB1 PAM mode β-Arrestin EC50.
Setting [13] is: CB1, agonist mode, read-out: CB1 Agonist mode β-Arrestin EC50.
Setting [14] is: read-out: CB1 Agonist mode β-Arrestin Emax.
[15] abbreviates: read-out: CB1 PAM mode β-Arrestin Emax.

A word on the EC50: it is the concentration at which the effect is half-maximal. The term Emax denotes the size of the effect at its maximum, as opposed to the concentration needed.

Structures are written as SMILES. Where two headings read alike, the source gives them in different places.

T2 sequence (P21554 whole entry): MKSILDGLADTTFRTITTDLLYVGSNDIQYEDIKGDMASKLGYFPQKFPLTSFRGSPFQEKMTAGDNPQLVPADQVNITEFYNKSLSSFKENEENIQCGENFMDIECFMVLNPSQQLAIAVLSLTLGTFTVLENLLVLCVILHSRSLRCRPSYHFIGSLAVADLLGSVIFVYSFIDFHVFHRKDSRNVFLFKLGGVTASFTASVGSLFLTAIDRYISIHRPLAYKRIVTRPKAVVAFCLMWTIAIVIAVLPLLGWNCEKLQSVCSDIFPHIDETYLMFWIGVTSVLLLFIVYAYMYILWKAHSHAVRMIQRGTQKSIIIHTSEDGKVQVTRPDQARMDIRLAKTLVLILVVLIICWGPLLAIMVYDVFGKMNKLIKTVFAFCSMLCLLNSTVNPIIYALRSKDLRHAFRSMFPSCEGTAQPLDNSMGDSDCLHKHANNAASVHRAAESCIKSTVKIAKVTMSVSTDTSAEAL

With `O=C(O)CCC(c1ccccc1)c1cn(-c2ccccc2)c2ccccc12` (stereo not drawn) [GAT1102, 4-Phenyl-4-(1-phenyl-1H-indol-3-yl)butanoic acid], in experiment [1], the “IOP compared to vehicle” value was “significantly lower”. Also, the IOP change entry in experiment [2] is reported as “significantly decreased IOP”. In experiment [3] (1 μM GAT1102), the “agonist properties (direct inhibition of EPSCs)” value is listed as “exhibited agonist properties in some cells”. Further, the “PAM effect on depolarization-induced suppression of excitation (DSE)” value in experiment [3] (slowing recovery for DSE, in most cases occluded by direct inhibition) is recorded as “some evidence of a modest GAT1102 PAM effect”.

As for `O=C(O)CCC(c1ccccc1)c1cn(Cc2ccccc2)c2ccccc12` (stereo not drawn) [Compound 18, 4-(1-Penzyl-1H-indol-3-yl)-4-phenylbutanoic acid], the EC50 at CB2 [4] is 407 nM; on CB2 [5], greater than 10 µM; at hCB1 [6] (setting [8]), 610 nM; on hCB1 [6] (setting [9]), 1040 nM; on hCB1 [7] (setting [12]), greater than 10 µM; on hCB1 [7] (setting [13]) it was greater than 10 µM. The Emax on CB2 [4] was 64%; at CB2 [5], 0%; at hCB1 [6] (setting [10]), 87%; at hCB1 [6] (setting [11]) it was 97%; at hCB1 [7] (setting [14]) it was 0%; on hCB1 [7] (setting [15]), 0%.

Regarding `O=C(O)CCC(c1ccccc1)c1cn(-c2ccccn2)c2ccccc12` (stereo not drawn) [Compound 21, 4-Phenyl-4-(1-(pyridin-2-yl)-1H-indol-3-yl)butanoic acid], the EC50 was 1110 nM at CB2 [4]; greater than 10 µM on CB2 [5]; 869 nM at hCB1 [6] (setting [8]); 457 nM on hCB1 [6] (setting [9]); greater than 10 µM at hCB1 [7] (setting [12]); greater than 10 µM on hCB1 [7] (setting [13]). For the same molecule, the Emax on CB2 [4] was found to be 85%; at CB2 [5], 0%; at hCB1 [6] (setting [10]), 95%; on hCB1 [6] (setting [11]), 96%; on hCB1 [7] (setting [14]), 0%; on hCB1 [7] (setting [15]), 0%.

As for `O=C(O)CCCCC(c1ccccc1)c1cn(-c2ccccc2)c2ccccc12` (stereo not drawn) [Compound 20, 6-Phenyl-6-(1-phenyl-1H-indol-3-yl)hexanoic acid], the EC50 at CB2 [4] was 505 nM; at CB2 [5] it was greater than 10 µM; at hCB1 [6] (setting [8]), 1090 nM; on hCB1 [6] (setting [9]), 355 nM; at hCB1 [7] (setting [12]), greater than 10 µM; on hCB1 [7] (setting [13]), greater than 10 µM. Besides, the Emax was 98% on CB2 [4]; 0% at CB2 [5]; 96% on hCB1 [6] (setting [10]); 96% at hCB1 [6] (setting [11]); 0% at hCB1 [7] (setting [14]); 0% at hCB1 [7] (setting [15]).

On to `O=C(O)CCC(c1ccccc1)c1c[nH]c2ccccc12` (stereo not drawn) [Compound 28, 4-(1H-Pndol-3-yl)-4-phenylbutanoic acid], for which the EC50 at CB2 [4] is greater than 10000 nM; on CB2 [5] it was greater than 10 µM; at hCB1 [6] (setting [8]) it was 4350 nM; on hCB1 [6] (setting [9]) it was 9810 nM; at hCB1 [7] (setting [12]), greater than 10 µM; on hCB1 [7] (setting [13]) it was greater than 10 µM. Further, the Emax on CB2 [4] amounted to 29%; on CB2 [5], 0%; on hCB1 [6] (setting [10]) it was 60%; at hCB1 [6] (setting [11]) it was 71%; on hCB1 [7] (setting [14]) it was 0%; at hCB1 [7] (setting [15]), 0%.

For the molecule `O=C(O)CCC(c1ccccc1)c1cn(-c2cccnc2)c2ccccc12` (stereo not drawn) [Compound 22, 4-Phenyl-4-(1-(pyridin-3-yl)-1H-indol-3-yl)butanoic acid], the EC50 at CB2 [4] is 731 nM; on CB2 [5] it was greater than 10 µM; on hCB1 [6] (setting [8]) it was 1000 nM; at hCB1 [6] (setting [9]), 831 nM; at hCB1 [7] (setting [12]), greater than 10 µM; at hCB1 [7] (setting [13]), greater than 10 µM. Also, the Emax at CB2 [4] was 68%; on CB2 [5] it was 0%; at hCB1 [6] (setting [10]) it was 87%; at hCB1 [6] (setting [11]), 109%; at hCB1 [7] (setting [14]) it was 0%; on hCB1 [7] (setting [15]) it was 0%.

Consider `CC(=O)CC(C)C(c1ccccc1)c1cn(-c2ccccc2)c2ccccc12` (stereo not drawn) [Compound 42, 4-Methyl-5-phenyl-5-(1-phenyl-1H-indol-3-yl)pentan-2-one], for which the “CB2 Agonist mode cAMP Emax” value on CB2 [4] is “(0) %”. Further, the “CB2 Agonist mode β-Arrestin Emax” value at CB2 [5] was 0%. The values for the EC50 at CB2 [5] and at hCB1 [6] (setting [8]) were greater than 10 µM and greater than 10000 nM, respectively. Further, the “CB1 PAM mode cAMP Emax” value at hCB1 [6] (CB1, PAM mode) is recorded as “(0) %”. Further, on hCB1 [6] (CB1, agonist mode), the “CB1 Agonist mode cAMP Emax” value was “(0) %”. The “CB1 PAM mode β-Arrestin Emax” value on hCB1 [7] (CB1, PAM mode) is reported as “(0) %”. At hCB1 [7] (CB1, agonist mode), the “CB1 Agonist mode β-Arrestin Emax” value was “(0) %”.

On to `O=C(O)CCC(c1ccccc1)c1cn(-c2ccncc2)c2ccccc12` (stereo not drawn) [Compound 23, 4-Phenyl-4-(1-(pyridin-4-yl)-1H-indol-3-yl)butanoic acid], for which the EC50 is 570 nM on CB2 [4]; greater than 10 µM at CB2 [5]; 1060 nM at hCB1 [6] (setting [8]); 357 nM on hCB1 [6] (setting [9]); greater than 10 µM on hCB1 [7] (setting [12]); greater than 10 µM on hCB1 [7] (setting [13]). In addition, the Emax on CB2 [4] worked out at 78%; on CB2 [5], 0%; at hCB1 [6] (setting [10]), 83%; at hCB1 [6] (setting [11]) it was 104%; on hCB1 [7] (setting [14]), 0%; at hCB1 [7] (setting [15]) it was 0%.

As to `CC(=O)CC(C)C(c1ccccc1)c1cn(-c2ccccc2)c2ccccc12` (stereo not drawn) [Compound 41, 4-Methyl-5-phenyl-5-(1-phenyl-1H-indol-3-yl)pentan-2-one], at CB2 [4], the “CB2 Agonist mode cAMP Emax” value is “(34) %”. Moreover, the EC50 on CB2 [4] is greater than 10000 nM; at CB2 [5], greater than 10 µM; at hCB1 [6] (setting [8]) it was greater than 10000 nM; at hCB1 [6] (setting [9]) it was greater than 10000 nM; at hCB1 [7] (setting [12]), greater than 10 µM; on hCB1 [7] (setting [13]) it was greater than 10 µM. Moreover, the Emax at CB2 [5], on hCB1 [6] (setting [10]), on hCB1 [6] (setting [11]), at hCB1 [7] (setting [14]) and on hCB1 [7] (setting [15]) was 0% in each case.

On to `O=C(O)CCCC(c1ccccc1)c1cn(-c2ccccc2)c2ccccc12` (stereo not drawn) [Compound 19, 5-Phenyl-5-(1-phenyl-1H-indol-3-yl)pentanoic acid], for which the EC50 on CB2 [4] was 654 nM; at CB2 [5], greater than 10 µM; on hCB1 [6] (setting [8]), 1420 nM; on hCB1 [6] (setting [9]) it was 827 nM; on hCB1 [7] (setting [12]), greater than 10 µM; on hCB1 [7] (setting [13]) it was greater than 10 µM. Also, the Emax on CB2 [4] was 95%; at CB2 [5], 0%; on hCB1 [6] (setting [10]) it was 98%; at hCB1 [6] (setting [11]), 98%; on hCB1 [7] (setting [14]), 0%; at hCB1 [7] (setting [15]), 0%.

For `O=C(O)CCC(c1ccccc1)c1cn(C(=O)c2ccccc2)c2ccccc12` (stereo not drawn) [Compound 29, 4-(1-Penzoyl-1H-indol-3-yl)-4-phenylbutanoic acid], the EC50 was 419 nM at CB2 [4]; greater than 10 µM at CB2 [5]; 709 nM on hCB1 [6] (setting [8]); 596 nM at hCB1 [6] (setting [9]); greater than 10 µM at hCB1 [7] (setting [12]); greater than 10 µM on hCB1 [7] (setting [13]). In addition, the Emax was determined as 76% at CB2 [4]; 0% on CB2 [5]; 92% at hCB1 [6] (setting [10]); 114% at hCB1 [6] (setting [11]); 0% at hCB1 [7] (setting [14]); 0% on hCB1 [7] (setting [15]).
